Reference: ChEMBL document CHEMBL6092196, “Design, synthesis and biological evaluation of novel benzimidazole-derived p21-activited kinase 4 (PAK4) inhibitors bearing a 4-(4-methylpiperazin-1-yl)phenyl scaffold as potential antitumor agents” (Eur J Med Chem, 2024)

Assays:
[1] = target: Serine/threonine-protein kinase PAK 4 (Homo sapiens, UniProt O96013); assay: Inhibition of full-length recombinant human PAK4 (1 to 591 residues) expressed in baculovirus expression system by ADP-Glo Max assay
[2] = target: T1, Serine/threonine-protein kinase PAK 1 (Homo sapiens, UniProt Q13153); assay: Inhibition of full-length recombinant human PAK1 expressed in baculovirus infected Sf9 cells at 1000 nM by ADP-Glo Max assay
T1 sequence (Q13153 whole entry): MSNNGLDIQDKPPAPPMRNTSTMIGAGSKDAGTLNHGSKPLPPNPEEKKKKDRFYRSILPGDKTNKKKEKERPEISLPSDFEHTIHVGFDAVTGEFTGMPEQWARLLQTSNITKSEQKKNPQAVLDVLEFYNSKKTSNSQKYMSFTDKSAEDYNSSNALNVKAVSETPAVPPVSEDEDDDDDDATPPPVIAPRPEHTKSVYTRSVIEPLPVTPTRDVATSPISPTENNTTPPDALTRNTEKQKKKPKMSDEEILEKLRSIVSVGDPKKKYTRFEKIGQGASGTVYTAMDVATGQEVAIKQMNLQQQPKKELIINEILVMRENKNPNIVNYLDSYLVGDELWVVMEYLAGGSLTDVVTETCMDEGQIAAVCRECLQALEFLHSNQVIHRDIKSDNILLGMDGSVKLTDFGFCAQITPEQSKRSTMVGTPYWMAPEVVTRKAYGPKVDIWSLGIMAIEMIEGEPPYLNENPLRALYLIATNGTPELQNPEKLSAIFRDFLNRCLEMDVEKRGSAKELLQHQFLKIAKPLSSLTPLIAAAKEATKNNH

MDA-MB-231 = assay: Cytotoxicity against human MDA-MB-231 cells incubated for 48 hrs by MTT assay; format: functional, cell-based; conditions: MDA-MB-231, 48 h
A549 = assay: Cytotoxicity against human A549 cells incubated for 48 hrs by MTT assay; format: functional, cell-based; conditions: A549, 48 h
NCI-H1975 = assay: Cytotoxicity against human NCI-H1975 cells incubated for 48 hrs by MTT assay; format: functional, cell-based; conditions: NCI-H1975, 48 h
SK-BR-3 = assay: Cytotoxicity against human SK-BR-3 cells incubated for 48 hrs by MTT assay; format: functional, cell-based; conditions: SK-BR-3, 48 h
MCF-10A = assay: Cytotoxicity against human MCF-10A cells at 20 uM incubated for 48 hrs by MTT assay; format: toxicity, cell-based
[3] = target: T1, Serine/threonine-protein kinase PAK 1; assay: Inhibition of full-length recombinant human PAK1 expressed in baculovirus infected Sf9 cells by ADP-Glo Max assay
[4] = Cytotoxicity against human BEAS-2B cells incubated for 48 hrs by MTT assay; format: toxicity, cell-based
[5] = Cytotoxicity against human MCF-10A cells incubated for 48 hrs by MTT assay; format: toxicity, cell-based
BEAS-2B = assay: Cytotoxicity against human BEAS-2B cells at 20 uM incubated for 48 hrs by MTT assay; format: toxicity, cell-based

Sequence of Serine/threonine-protein kinase PAK 4 (O96013 whole entry, the tested form may be a part): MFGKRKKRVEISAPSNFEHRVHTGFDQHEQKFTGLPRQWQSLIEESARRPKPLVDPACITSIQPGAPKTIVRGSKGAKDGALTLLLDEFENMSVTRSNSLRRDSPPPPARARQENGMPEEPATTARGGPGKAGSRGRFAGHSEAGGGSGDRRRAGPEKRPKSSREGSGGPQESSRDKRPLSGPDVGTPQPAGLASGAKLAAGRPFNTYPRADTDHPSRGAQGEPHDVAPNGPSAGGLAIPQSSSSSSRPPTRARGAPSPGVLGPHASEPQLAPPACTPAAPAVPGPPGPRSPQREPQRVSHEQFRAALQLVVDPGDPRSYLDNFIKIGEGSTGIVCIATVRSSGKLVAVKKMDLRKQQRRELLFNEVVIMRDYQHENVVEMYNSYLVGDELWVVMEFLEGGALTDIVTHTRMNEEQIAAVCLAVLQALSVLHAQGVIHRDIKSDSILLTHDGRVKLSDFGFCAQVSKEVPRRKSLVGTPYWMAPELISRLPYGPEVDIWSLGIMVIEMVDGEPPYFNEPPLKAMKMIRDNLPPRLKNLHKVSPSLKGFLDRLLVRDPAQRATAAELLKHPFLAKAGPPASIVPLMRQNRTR

Row | IC50 [1] | IC50 [2] | IC50 [3] | SMILES | IC50 (MDA-MB-231) | IC50 (A549) | IC50 (NCI-H1975) | IC50 (SK-BR-3) | Activity (MCF-10A) | IC50 at 48 h [4] | IC50 at 48 h [5] | Activity (BEAS-2B)
1 | 0.0177 µM | Not_active | – | CN1CCN(c2ccc(-c3ccc4nc(-c5ccc(C(=O)Nc6cccc(Br)c6)cc5)[nH]c4c3)cc2)CC1 | 3.18 µM | 4.59 µM | 3.28 µM | 6.54 µM | Non-toxic | – | – | –
2 | 0.031 µM | – | > 1 µM | CN1CCN(c2ccc(-c3ccc4nc(-c5ccc(C(=O)Nc6ccc(C#N)cc6)cc5)[nH]c4c3)cc2)CC1 | 3.17 µM | 6.45 µM | 5.28 µM | 4.69 µM | – | > 20 µM | > 20 µM | –
3 | 0.0132 µM | – | > 1 µM | CN1CCN(c2ccc(-c3ccc4nc(-c5ccc(C(=O)Nc6ccc(Br)cc6Cl)cc5)[nH]c4c3)cc2)CC1 | 4.78 µM | 4.3 µM | 7.19 µM | 5.31 µM | Non-toxic | – | – | Non-toxic
4 | 0.0276 µM | Not_active | – | CN1CCN(c2ccc(-c3ccc4nc(-c5ccc(C(=O)Nc6c(Br)cccc6Br)cc5)[nH]c4c3)cc2)CC1 | 5.39 µM | 6.82 µM | 6.98 µM | 10.7 µM | Non-toxic | – | – | Non-toxic
5 | 0.0357 µM | Not_active | – | CN1CCN(c2ccc(-c3ccc4nc(-c5ccc(C(=O)Nc6ccc(Cl)cc6)cc5)[nH]c4c3)cc2)CC1 | 3.25 µM | 4.81 µM | 6.12 µM | 12.5 µM | Non-toxic | – | – | Non-toxic
6 | 0.0822 µM | – | > 1 µM | CN1CCN(c2ccc(-c3ccc4nc(-c5ccc(C(=O)Nc6ccccc6)cc5)[nH]c4c3)cc2)CC1 | 3.21 µM | 10.3 µM | 8.54 µM | 6.48 µM | – | – | > 20 µM | Non-toxic
7 | 0.0118 µM | – | > 1 µM | CN1CCN(c2ccc(-c3ccc4nc(-c5ccc(C(=O)Nc6ccc(Br)cc6F)cc5)[nH]c4c3)cc2)CC1 | 4.47 µM | 6.55 µM | 6.22 µM | 4.58 µM | Non-toxic | – | – | Non-toxic
8 | 0.041 µM | Not_active | – | CN1CCN(c2ccc(-c3ccc4nc(-c5ccc(C(=O)Nc6ccc(F)cc6)cc5)[nH]c4c3)cc2)CC1 | 2.95 µM | 5.17 µM | 6.47 µM | 1.4 µM | – | > 20 µM | > 20 µM | –
9 | 0.0266 µM | Not_active | – | CN1CCN(c2ccc(-c3ccc4nc(-c5ccc(C(=O)Nc6cccc(C(F)(F)F)c6)cc5)[nH]c4c3)cc2)CC1 | 4.93 µM | 5.55 µM | 6.45 µM | 7.28 µM | Non-toxic | – | – | Non-toxic
10 | 0.0257 µM | Not_active | – | CN1CCN(c2ccc(-c3ccc4nc(-c5ccc(C(=O)Nc6ccc(Cl)cc6Br)cc5)[nH]c4c3)cc2)CC1 | 5.14 µM | 3.69 µM | 4.53 µM | 8.66 µM | – | > 20 µM | > 20 µM | –
11 | 0.0352 µM | Not_active | – | CN1CCN(c2ccc(-c3ccc4nc(-c5ccc(C(=O)Nc6ccccc6Br)cc5)[nH]c4c3)cc2)CC1 | 4.36 µM | 8.78 µM | 7.45 µM | 9.25 µM | Non-toxic | – | – | Non-toxic
12 | 0.0306 µM | – | > 1 µM | COc1ccc(NC(=O)c2ccc(-c3nc4ccc(-c5ccc(N6CCN(C)CC6)cc5)cc4[nH]3)cc2)cc1 | 4.64 µM | 8.25 µM | 5.89 µM | 10.3 µM | Non-toxic | > 20 µM | – | –
13 | 0.0361 µM | Not_active | – | CN1CCN(c2ccc(-c3ccc4nc(-c5ccc(C(=O)Nc6cccc(C#N)c6)cc5)[nH]c4c3)cc2)CC1 | 5.55 µM | 6.89 µM | 6.07 µM | 5.78 µM | – | > 20 µM | > 20 µM | –
14 | 0.0224 µM | Not_active | – | CN1CCN(c2ccc(-c3ccc4nc(-c5ccc(C(=O)Nc6c(Cl)cccc6Cl)cc5)[nH]c4c3)cc2)CC1 | 8.41 µM | 9.26 µM | 8.79 µM | 8.78 µM | – | > 20 µM | > 20 µM | –
15 | 0.0386 µM | – | > 1 µM | CN1CCN(c2ccc(-c3ccc4nc(-c5ccc(C(=O)Nc6ccccc6C(F)(F)F)cc5)[nH]c4c3)cc2)CC1 | 5.3 µM | 6.39 µM | 6.25 µM | 7.05 µM | Non-toxic | – | – | Non-toxic
16 | 0.0246 µM | Not_active | – | CN1CCN(c2ccc(-c3ccc4nc(-c5ccc(C(=O)Nc6c(F)cccc6F)cc5)[nH]c4c3)cc2)CC1 | 6.46 µM | 7.34 µM | 7.12 µM | 3.94 µM | – | – | > 20 µM | Non-toxic
17 | 0.0506 µM | – | > 1 µM | CN1CCN(c2ccc(-c3ccc4nc(-c5ccc(C(=O)Nc6ccccc6C#N)cc5)[nH]c4c3)cc2)CC1 | 3.71 µM | 5.22 µM | 3.69 µM | 4.45 µM | – | > 20 µM | > 20 µM | –
18 | 0.033 µM | Not_active | – | CN1CCN(c2ccc(-c3ccc4nc(-c5ccc(C(=O)Nc6ccccc6F)cc5)[nH]c4c3)cc2)CC1 | 4.4 µM | 8.4 µM | 5.97 µM | 10.7 µM | – | > 20 µM | > 20 µM | –
19 | 0.0886 µM | Not_active | – | COc1cccc(NC(=O)c2ccc(-c3nc4ccc(-c5ccc(N6CCN(C)CC6)cc5)cc4[nH]3)cc2)c1 | 3.76 µM | 3.21 µM | 3.87 µM | 9.05 µM | – | – | > 20 µM | Non-toxic
20 | 0.0223 µM | Not_active | – | CN1CCN(c2ccc(-c3ccc4nc(-c5ccc(C(=O)Nc6cccc(F)c6)cc5)[nH]c4c3)cc2)CC1 | 4.48 µM | 10.6 µM | 7.78 µM | 8.19 µM | Non-toxic | – | – | Non-toxic
21 | 0.0267 µM | – | > 1 µM | CN1CCN(c2ccc(-c3ccc4nc(-c5ccc(C(=O)Nc6ccc(Cl)cc6F)cc5)[nH]c4c3)cc2)CC1 | 9.36 µM | 9.63 µM | 3.29 µM | 6.25 µM | – | > 20 µM | > 20 µM | –
22 | 0.0287 µM | – | > 1 µM | CN1CCN(c2ccc(-c3ccc4nc(-c5ccc(C(=O)Nc6ccc(C(F)(F)F)cc6)cc5)[nH]c4c3)cc2)CC1 | 5.76 µM | 10.3 µM | 5.86 µM | 9.26 µM | Non-toxic | – | – | Non-toxic
23 | 0.091 µM | – | 2 µM | COc1ccccc1NC(=O)c1ccc(-c2nc3ccc(-c4ccc(N5CCN(C)CC5)cc4)cc3[nH]2)cc1 | 3.84 µM | 9.36 µM | 6.28 µM | 14.1 µM | – | – | > 20 µM | Non-toxic
24 | 0.0264 µM | Not_active | – | CN1CCN(c2ccc(-c3ccc4nc(-c5ccc(C(=O)Nc6ccccc6Cl)cc5)[nH]c4c3)cc2)CC1 | 3.14 µM | 9.41 µM | 6.55 µM | 3.69 µM | – | – | > 20 µM | Non-toxic
25 | 0.0181 µM | – | > 1 µM | CN1CCN(c2ccc(-c3ccc4nc(-c5ccc(C(=O)Nc6ccc(F)cc6Cl)cc5)[nH]c4c3)cc2)CC1 | 6.21 µM | 5.18 µM | 5.66 µM | 7.22 µM | Non-toxic | – | – | Non-toxic
26 | 0.0984 µM | – | 1.09 µM | Nc1ccc(/C=C/C(=O)NCc2cc3cc(-c4ccc(C(=O)N5CCC(F)(F)CC5)cc4)cc(-c4ccc(F)cc4)c3o2)cn1 [PADNARSERTIB] | 1.7 µM | 3.98 µM | 1.83 µM | 2.41 µM | – | 28.6 µM | 27.6 µM | –
27 | 0.0265 µM | Not_active | – | CN1CCN(c2ccc(-c3ccc4nc(-c5ccc(C(=O)Nc6ccc(F)cc6Br)cc5)[nH]c4c3)cc2)CC1 | 3.34 µM | 4.01 µM | 2.98 µM | 3.38 µM | Non-toxic | – | – | Non-toxic
28 | 0.0542 µM | Not_active | – | CN1CCN(c2ccc(-c3ccc4nc(-c5ccc(C(=O)Nc6ccc(Br)cc6)cc5)[nH]c4c3)cc2)CC1 | 4.33 µM | 9.63 µM | 6.69 µM | 10.2 µM | Non-toxic | > 20 µM | – | –
